Source: PMC11310079, “Commensal production of a broad-spectrum and short-lived antimicrobial peptide polyene eliminates nasal Staphylococcus aureus” (Nature Microbiology, 2023)

Tests used:
S. aureus USA300 LAC = assay: Stability analysis of epifadin (bioactivity by agar diffusion after incubation); format: physicochemical, Staphylococcus aureus; details: 37 °C, pH 7, light, r4-r10 = 0-6 h
Method: Fig. 2 High instability of epifadin under in vivo-like conditions. S. epidermidis IVK83 culture supernatants containing epifadin were precipitated with HCl, freeze-dried and extracted with DMSO. This extract was diluted in TSB, incubated for the indicated time periods with constant shaking under the respective conditions and subsequently tested for activity towards S. aureus USA300 LAC. a, Stability of epifadin compared with other antibacterial agents under standard laboratory conditions (37 °C, pH 7, laboratory light exposure). b, In vivo-like conditions with laboratory light exposure at pH 7 (nasal condition) or pH 5.5 (skin condition) and reduced temperatures; incubation of epifadin under exclusion from light enabled further purification and activity determination. Conditions at pH 7, 37 °C and 0 h were used as reference for 100% stability. Data shown represent the mean ± s.d. of three independent experiments. Source data
The effect of different incubation conditions on the bioactivity of epifadin was analysed by agar diffusion assays on lawns of the sensitive indicator strain S. aureus USA300 LAC. To this end, liquid TSA was inoculated with an overnight culture of USA300 at an OD600 of 0.00125. After solidification of the agar, a cork borer was used to punch wells into the agar with 5 mm diameter. TSB media with 50 mM sodium citrate (pH 5 and 6) or 50 mM tris(hydroxymethyl)aminomethane (pH 8 and 9) were prepared. Epifadin-containing precipitate was dissolved in DMSO (12 mg ml^−1), and insoluble particles were removed by centrifugation. The supernatant was added to the prepared TSB media at a final concentration of 750 µg precipitate per millilitre (37.5 µg in 50 µl). Media were incubated for 6 h at 21 °C, 30 °C or 37 °C with or without laboratory light exposure and constant shaking at 500 rpm in a thermomixer (Eppendorf). As controls, 70 µg ml^−1 (3.5 µg in 50 µl) lugdunin, 24 µg ml^−1 (1.2 µg in 50 µl) gallidermin and 100 µg ml^−1 (5 µg in 50 µl) nisin were used. At different timepoints, 50 µl of each sample was pipetted into the wells of the agar plates. After incubation at 37 °C overnight, zones of inhibition were analysed with ImageJ software (version 1.8.0_112).

S. aureus USA300 JE2 = assay: Determination of the IC (miniaturized agar diffusion assay); format: cell-based, Staphylococcus aureus; details: agar diffusion on inoculated TSA, 24 h 37 °C dark; IC from inhibited agar volume
Method: (§1) Instead, a miniaturized assay was developed. Molten TSA, kept below 42 °C, was inoculated with different test strains at an OD600 of 0.00125. Then, 17.5 ml was poured into Petri dishes, resulting in agar layers of ~3.16 mm thickness. After solidification, a cork borer was used to punch wells of 4-mm diameter into the agar. Thirty-five microlitres of purified epifadin in DMSO–PA (2.4 µg, 1.2 µg, 0.6 µg, 0.3 µg, 0.15 µg and 0.075 µg) was pipetted into the wells, and agar plates were incubated for 24 h at 37 °C in the dark. Diameters of the zones of inhibition were measured and the volume containing the inhibitory epifadin concentration was calculated, using the following formula for cylinder volume: Vc=πxr^2xhVc=cylindervolumeVi=πrz2xha−(πrw2xha)Vi=inhibitedvolumerz2=radius(diameter/2)zoneofinhibitionrw2=radius(diameter/2)ofwellha=heightofagar
(§2) The volume of agar showing inhibition of the test strain was then correlated with the included amount of epifadin, and the epifadin concentration necessary to inhibit test strain growth in a 1 ml volume was calculated to yield IC values. If, for example, 2.4 µg of epifadin lead to an inhibited volume of 480 µl, to inhibit a volume of 1 ml, 5 µg epifadin is needed, which corresponds to an IC of 5 μg ml^−1. These calculations were conducted for the lowest amount of epifadin that led to a zone of inhibition to minimize the necessary epifadin amounts and the calculation error due to the gradient within the inhibition zone. As a control, the same assay was used to determine the IC for vancomycin, daptomycin and lugdunin under these conditions.

S. aureus USA300LAC = assay: as above; format: cell-based, Staphylococcus aureus; details: agar diffusion on inoculated TSA, 35 µl in 4-mm wells, 24 h 37 °C dark; IC from inhibited agar volume at lowest active amount
Method: as §1, §2

Compound: Nisin
- stability (remaining antimicrobial activity, 0 h = 100%) (S. aureus USA300 LAC; nisin 100 µg/ml in TSB, experiment 1 of 3, after 1 h incubation): 97.92%
- stability (remaining antimicrobial activity, 0 h = 100%) (S. aureus USA300 LAC; nisin 100 µg/ml in TSB, experiment 1 of 3, after 2 h incubation): 95.64%
- stability (remaining antimicrobial activity, 0 h = 100%) (S. aureus USA300 LAC; nisin 100 µg/ml in TSB, experiment 1 of 3, after 3 h incubation): 93.46%
- stability (remaining antimicrobial activity, 0 h = 100%) (S. aureus USA300 LAC; nisin 100 µg/ml in TSB, experiment 1 of 3, after 4 h incubation): 95.48%
- stability (remaining antimicrobial activity, 0 h = 100%) (S. aureus USA300 LAC; nisin 100 µg/ml in TSB, experiment 1 of 3, after 5 h incubation): 97.51%
- stability (remaining antimicrobial activity, 0 h = 100%) (S. aureus USA300 LAC; nisin 100 µg/ml in TSB, experiment 1 of 3, after 6 h incubation): 85.14%
- stability (remaining antimicrobial activity, 0 h = 100%) (S. aureus USA300 LAC; nisin 100 µg/ml in TSB, experiment 2 of 3, after 1 h incubation): 104.00%
- stability (remaining antimicrobial activity, 0 h = 100%) (S. aureus USA300 LAC; nisin 100 µg/ml in TSB, experiment 2 of 3, after 2 h incubation): 100.36%
- stability (remaining antimicrobial activity, 0 h = 100%) (S. aureus USA300 LAC; nisin 100 µg/ml in TSB, experiment 2 of 3, after 3 h incubation): 102.17%
- stability (remaining antimicrobial activity, 0 h = 100%) (S. aureus USA300 LAC; nisin 100 µg/ml in TSB, experiment 2 of 3, after 4 h incubation): 101.46%
- stability (remaining antimicrobial activity, 0 h = 100%) (S. aureus USA300 LAC; nisin 100 µg/ml in TSB, experiment 2 of 3, after 5 h incubation): 105.85%
- stability (remaining antimicrobial activity, 0 h = 100%) (S. aureus USA300 LAC; nisin 100 µg/ml in TSB, experiment 2 of 3, after 6 h incubation): 97.13%
- stability (remaining antimicrobial activity, 0 h = 100%) (S. aureus USA300 LAC; nisin 100 µg/ml in TSB, experiment 3 of 3, after 1 h incubation): 107.69%
- stability (remaining antimicrobial activity, 0 h = 100%) (S. aureus USA300 LAC; nisin 100 µg/ml in TSB, experiment 3 of 3, after 2 h incubation): 105.39%
- stability (remaining antimicrobial activity, 0 h = 100%) (S. aureus USA300 LAC; nisin 100 µg/ml in TSB, experiment 3 of 3, after 4 h incubation): 113.09%
- stability (remaining antimicrobial activity, 0 h = 100%) (S. aureus USA300 LAC; nisin 100 µg/ml in TSB, experiment 3 of 3, after 5 h incubation): 97.70%
- stability (remaining antimicrobial activity, 0 h = 100%) (S. aureus USA300 LAC; nisin 100 µg/ml in TSB, experiment 3 of 3, after 6 h incubation): 77.36%

Compound: Gallidermin
- stability (remaining antimicrobial activity, 0 h = 100%) (S. aureus USA300 LAC; gallidermin 24 µg/ml in TSB, experiment 1 of 3, after 1 h incubation): 98.31%
- stability (remaining antimicrobial activity, 0 h = 100%) (S. aureus USA300 LAC; gallidermin 24 µg/ml in TSB, experiment 1 of 3, after 2 h incubation): 98.34%
- stability (remaining antimicrobial activity, 0 h = 100%) (S. aureus USA300 LAC; gallidermin 24 µg/ml in TSB, experiment 1 of 3, after 3 h incubation): 97.66%
- stability (remaining antimicrobial activity, 0 h = 100%) (S. aureus USA300 LAC; gallidermin 24 µg/ml in TSB, experiment 1 of 3, after 4 h incubation): 104.98%
- stability (remaining antimicrobial activity, 0 h = 100%) (S. aureus USA300 LAC; gallidermin 24 µg/ml in TSB, experiment 1 of 3, after 5 h incubation): 100.66%
- stability (remaining antimicrobial activity, 0 h = 100%) (S. aureus USA300 LAC; gallidermin 24 µg/ml in TSB, experiment 1 of 3, after 6 h incubation): 98.44%
- stability (remaining antimicrobial activity, 0 h = 100%) (S. aureus USA300 LAC; gallidermin 24 µg/ml in TSB, experiment 2 of 3, after 1 h incubation): 97.85%
- stability (remaining antimicrobial activity, 0 h = 100%) (S. aureus USA300 LAC; gallidermin 24 µg/ml in TSB, experiment 2 of 3, after 2 h incubation): 106.35%
- stability (remaining antimicrobial activity, 0 h = 100%) (S. aureus USA300 LAC; gallidermin 24 µg/ml in TSB, experiment 2 of 3, after 3 h incubation): 110.68%
- stability (remaining antimicrobial activity, 0 h = 100%) (S. aureus USA300 LAC; gallidermin 24 µg/ml in TSB, experiment 2 of 3, after 4 h incubation): 102.27%
- stability (remaining antimicrobial activity, 0 h = 100%) (S. aureus USA300 LAC; gallidermin 24 µg/ml in TSB, experiment 2 of 3, after 5 h incubation): 103.29%
- stability (remaining antimicrobial activity, 0 h = 100%) (S. aureus USA300 LAC; gallidermin 24 µg/ml in TSB, experiment 2 of 3, after 6 h incubation): 108.21%
- stability (remaining antimicrobial activity, 0 h = 100%) (S. aureus USA300 LAC; gallidermin 24 µg/ml in TSB, experiment 3 of 3, after 1 h incubation): 100.01%
- stability (remaining antimicrobial activity, 0 h = 100%) (S. aureus USA300 LAC; gallidermin 24 µg/ml in TSB, experiment 3 of 3, after 2 h incubation): 96.91%
- stability (remaining antimicrobial activity, 0 h = 100%) (S. aureus USA300 LAC; gallidermin 24 µg/ml in TSB, experiment 3 of 3, after 3 h incubation): 95.85%
- stability (remaining antimicrobial activity, 0 h = 100%) (S. aureus USA300 LAC; gallidermin 24 µg/ml in TSB, experiment 3 of 3, after 4 h incubation): 100.24%
- stability (remaining antimicrobial activity, 0 h = 100%) (S. aureus USA300 LAC; gallidermin 24 µg/ml in TSB, experiment 3 of 3, after 5 h incubation): 103.69%
- stability (remaining antimicrobial activity, 0 h = 100%) (S. aureus USA300 LAC; gallidermin 24 µg/ml in TSB, experiment 3 of 3, after 6 h incubation): 91.59%

Compound: CN[C@H](CC(C)C)C(=O)N[C@H]1C(=O)N[C@@H](CC(N)=O)C(=O)N[C@H]2C(=O)N[C@H]3C(=O)N[C@H](C(=O)N[C@H](C(=O)O)c4cc(O)cc(O)c4-c4cc3ccc4O)[C@H](O)c3ccc(c(Cl)c3)Oc3cc2cc(c3O[C@@H]2O[C@H](CO)[C@@H](O)[C@H](O)[C@H]2O[C@H]2C[C@](C)(N)[C@H](O)[C@H](C)O2)Oc2ccc(cc2Cl)[C@H]1O [Vancomycin]
- IC* (S. aureus USA300 JE2): 3.7 µg/mL
- IC* (S. aureus USA300LAC): 6.0 µg/mL
